Data: paper PMC10812941, “Selenium-Containing (Hetero)Aryl Hybrids as Potential Antileishmanial Drug Candidates: In Vitro Screening against L. amazonensis” (Biomedicines, 2024)
Like-named read-outs stand apart in the source and are kept apart here.

Columns and labels:
in vitro [1] = details: mouse
in vitro [2] = details: mouse; remark: listed apart in the source
[3] = tested on: L. amazonensis promastigotes; assay: Anti-promastigote assay (resazurin viability); details: for IC50: 48 h; for SI (CC50 on murine peritoneal macrophages/IC50 on promastigotes): peritoneal macrophages vs promastigotes; for Selectivity Index (SI) CC50 J774 / IC50 promastigotes: J774A.1 vs promastigotes; for Selectivity Index (SI) CC50 NIH/3T3 / IC50 promastigotes: NIH/3T3 vs promastigotes
Description: (§1) Parasites in the exponential growth phase were used for the in vitro anti-promastigote assay, while those in the stationary phase were used for the anti-amastigote assay. Intracellular amastigote forms were obtained by infecting murine peritoneal macrophages with promastigotes.
Cell viability was assessed using the resazurin (Sigma-Aldrich) assay. A solution of resazurin (Sigma-Aldrich, USA) at 0.2 mg·mL^−1 was added to each well, and after 4 h of incubation at 26 °C, the absorbances at 570 nm and 600 nm were acquired, and the viability calculation for all wells was performed based on the formula and instructions provided by the AlamarBlue® manufacturer’s website (Bio-Rad, Hercules, CA, USA) [41]. Cell viability was evaluated from the optical density and compared to untreated cells. […] The half-maximal inhibitory concentration (IC50) values for each compound were calculated using a nonlinear dose–response regression curve generated by Prism 5 (GraphPad Software, USA).

[4] = tested on: L. amazonensis intracellular amastigotes; assay: Anti-amastigote assay in infected murine peritoneal macrophages; details: for IC50: Leishmania amazonensis, Peritoneal macrophage, in Mus musculus, 24 h, read-out: IC50 L. amazonensis Amastigotes
Description: as §1
Plates were incubated at 37 °C with 5% CO2 for 1 h to allow adhesion, which was confirmed by microscopy. […] Supernatants were removed after treatment, and cells were washed twice with PBS, fixed with Bouin’s solution (Sigma-Aldrich, USA), and stained with Giemsa (Sigma-Aldrich, USA) diluted 1:10 in distilled water. Coverslips were dehydrated through an acetone/xylene gradient (100%, 70%, 50%, 30%, and 100% each from Sigma-Aldrich) and mounted for microscopic visualization. The total number of intracellular amastigotes was counted in 200 cells per coverslip in three replicates using an optical microscope. The half-maximal inhibitory concentration (IC50) values were calculated for each compound using a nonlinear regression curve in GraphPad Prism 5.0 software (GraphPad Software, San Diego, CA, USA).

[5] = Leishmania amazonensis, read-out: IC50 L. amazonensis Promastigotes, 48 h, resazurin
[6] = read-out: IC50 L. amazonensis Promastigotes, resazurin

With Cc1ccc(-c2nnc([Se]c3ccccc3)o2)cc1 [MRK-103] the CC50 at 48 h (in vitro [1]) was over 200 µM, the CC50 at 48 h (in vitro [2]) was over 200 µM and the IC50 [3, 5] was 15.5 ± 1.13 µM. For the same molecule, the “SI (CC50 on murine peritoneal macrophages/IC50 on promastigotes)” value [3] was 12.92 and the IC50 [4] was over 50 µM.
With CC(C)(C)c1cc(O)cc(C(C)(C)C)c1[Se]C#N [MRK-105] the “Selectivity Index (SI) CC50 J774 / IC50 promastigotes” value [3] was 4.94, the IC50 [3, 5] was 15.5 µM and the “Selectivity Index (SI) CC50 NIH/3T3 / IC50 promastigotes” value [3] was 7.22. The “SI (CC50 on murine peritoneal macrophages/IC50 on promastigotes)” value [3] was 12.92, the “SI (CC50 on murine peritoneal macrophages/IC50 on promastigotes)” value ([3]; listed as 105) was 16.43 and the IC50 [3, 6] was 12.2 ± 1.12 µM. For the same molecule, the IC50 [4] was over 50 µM.
For Cc1ccn2c([Se]c3ccccc3)c(-c3ccccc3)nc2c1 [MRK-113], the CC50 at 48 h (in vitro [1]) was over 200 µM, the CC50 at 48 h (in vitro [2]) was over 200 µM and the “Selectivity Index (SI) CC50 J774 / IC50 promastigotes” value [3] was 4.88. The IC50 [3, 5] was 41 ± 1.31 µM, the “Selectivity Index (SI) CC50 NIH/3T3 / IC50 promastigotes” value [3] was 4.88 and the “SI (CC50 on murine peritoneal macrophages/IC50 on promastigotes)” value [3] was 4.88. For the same molecule, the “Selectivity Index (SI) CC50 J774 / IC50 amastigotes” value [4] was 12.55, the “Selectivity Index (SI) CC50 NIH/3T3 / IC50 amastigotes” value [4] was 12.55 and the IC50 [4] was 15.9 ± 1.69 µM.
With C[C@@H]1[C@H](O)[C@@H](C)/C=C/C=C/C=C/C=C/C=C/C=C/C=C/[C@H](O[C@@H]2O[C@H](C)[C@@H](O)[C@H](N)[C@@H]2O)C[C@@H]2O[C@](O)(C[C@@H](O)C[C@@H](O)[C@H](O)CC[C@@H](O)C[C@@H](O)CC(=O)O[C@H]1C)C[C@H](O)[C@H]2C(=O)O [ANFB, amphotericin B, reference compound] the CC50 at 48 h (in vitro [1]; NIH/3T3 fibroblast cells) was 19.3 ± 1.01 µM, the CC50 at 48 h (in vitro [2]; J774A.1 macrophage cells) was 27.3 ± 0.92 µM and the “Selectivity Index (SI) CC50 J774 / IC50 promastigotes” value [3] was 2.91. The IC50 [3, 5] was 9.41 ± 1.13 µM, the “Selectivity Index (SI) CC50 NIH/3T3 / IC50 promastigotes” value [3] was 2.05 and the “SI (CC50 on murine peritoneal macrophages/IC50 on promastigotes)” value [3] was 2.67. The IC50 [3, 6] was 9.4 ± 1.13 µM, the “Selectivity Index (SI) CC50 J774 / IC50 amastigotes” value ([4]; J774A.1 vs intracellular amastigotes) was 28.19 and the IC50 [4] was 0.97 ± 1.14 µM. For the same molecule, the “Selectivity Index (SI) CC50 NIH/3T3 / IC50 amastigotes” value ([4]; NIH/3T3 vs intracellular amastigotes) was 25.92.
With N#C[Se]Cc1cc(=O)oc2cc(O)ccc12 [MRK-108] the CC50 at 48 h (in vitro [1]) was over 200 µM, the CC50 at 48 h (in vitro [2]) was over 200 µM and the IC50 [3, 5] was 4.23 ± 2 µM. The “SI (CC50 on murine peritoneal macrophages/IC50 on promastigotes)” value [3] was over 47.31, the “SI (CC50 on murine peritoneal macrophages/IC50 on promastigotes)” value ([3]; listed as 108) was 47.31 and the IC50 [4] was over 50 µM.
In the case of COc1ccccc1[Se]c1c(-c2ccccc2)nc2cc(C)ccn12 [MRK-107], the CC50 at 48 h (in vitro [1]) is reported as over 200 µM, the CC50 at 48 h (in vitro [2]) is reported as over 200 µM and the “Selectivity Index (SI) CC50 J774 / IC50 promastigotes” value [3] is reported as 7.31. The IC50 [3, 5] was 27.4 ± 1.24 µM, the “Selectivity Index (SI) CC50 NIH/3T3 / IC50 promastigotes” value [3] was 7.31 and the “SI (CC50 on murine peritoneal macrophages/IC50 on promastigotes)” value [3] was 7.31. The “Selectivity Index (SI) CC50 J774 / IC50 amastigotes” value [4] was 10.92, the “Selectivity Index (SI) CC50 NIH/3T3 / IC50 amastigotes” value [4] was 10.92 and the IC50 [4] was 18.3 ± 1.5 µM.
In the case of Cc1cn2c([Se]c3ccccc3)c(-c3ccccc3)nc2s1 [MRK-111], the CC50 at 48 h (in vitro [1]) is reported as over 200 µM, the CC50 at 48 h (in vitro [2]) is reported as over 200 µM and the IC50 [3, 5] is reported as 17.6 ± 1.18 µM. The “SI (CC50 on murine peritoneal macrophages/IC50 on promastigotes)” value [3] was 11.40 and the IC50 [4] was over 50 µM.
Oc1ccc2ccccc2c1[Se]c1ccccc1 [MRK-102] showed a CC50 at 48 h (in vitro [1]) of over 200 µM, a CC50 at 48 h (in vitro [2]) of over 200 µM and an IC50 [3, 5] of 15.2 ± 1.12 µM. For the same molecule, the “SI (CC50 on murine peritoneal macrophages/IC50 on promastigotes)” value [3] was 13.20 and the IC50 [4] was over 50 µM.
